Values after ≈ are worked out from the molar mass of the structure shown.

The subject of this experiment is Mycobacterium tuberculosis. The experiment can be described thus: Antimycobacterial activity against log phase culture of Mycobacterium tuberculosis H37Rv by agar dilution method. The class given is functional. Background: In agar dilution the substance is mixed into plates at graded concentrations.
As usually defined, the MIC is the smallest concentration in the dilution series that meets the test's criterion for growth inhibition. Low values mean a more susceptible organism, high ones a less susceptible organism. In turn, `O=C1c2cccc3cccc(c23)[C@]12N[C@@H](c1ccccc1)[C@H](c1ccc(F)cc1)[C@]21CCC/C(=C\c2ccc(F)cc2)C1=O` displayed a minimal inhibitory concentration (MIC) of 6.25 µg/mL (≈ 10.7 µM).
For `O=C1c2cccc3cccc(c23)[C@]12N[C@@H](c1ccccc1)[C@H](c1ccccc1)[C@]21CCC/C(=C\c2ccccc2)C1=O` the value was 3.13 µg/mL (≈ 5.74 µM); for `COc1ccc(/C=C2\CCC[C@@]3(C2=O)[C@@H](c2ccc(OC)cc2)CN(C)[C@@]32C(=O)c3cccc4cccc2c34)cc1`, 25 µg/mL (≈ 46 µM).
`O=C1c2cccc3cccc(c23)[C@]12N1CSC[C@H]1[C@H](c1ccc(Cl)cc1Cl)[C@]21CCC/C(=C\c2ccc(Cl)cc2Cl)C1=O` showed a minimum inhibitory concentration (MIC) of 0.4 µg/mL (≈ 0.601 µM).
For `O=C1c2cccc3cccc(c23)[C@]12N1CSC[C@H]1[C@H](c1ccccc1Cl)[C@]21CCC/C(=C\c2ccccc2Cl)C1=O` the value was 0.78 µg/mL (≈ 1.31 µM).
With `Cc1ccccc1/C=C1\CCC[C@@]2(C1=O)[C@@H](c1ccccc1C)[C@@H]1CSCN1[C@@]21C(=O)c2cccc3cccc1c23` the figure was 0.78 µg/mL (≈ 1.4 µM); with `O=C1c2cccc3cccc(c23)[C@]12N1CCC[C@H]1[C@H](c1ccccc1Cl)[C@]21CCC/C(=C\c2ccccc2Cl)C1=O`, 3.13 µg/mL (≈ 5.41 µM).
In turn, `Cc1ccccc1/C=C1\CCC[C@@]2(C1=O)[C@@H](c1ccccc1C)[C@H](c1ccccc1)N[C@@]21C(=O)c2cccc3cccc1c23` returned a minimum inhibitory concentration (MIC) of 1.78 µg/mL (≈ 3.1 µM).
With `Cc1ccc(/C=C2\CCC[C@@]3(C2=O)[C@@H](c2ccc(C)cc2)CN(C)[C@@]32C(=O)c3cccc4cccc2c34)cc1` the figure was 25 µg/mL (≈ 48.9 µM).
In turn, `Cc1ccccc1/C=C1\CCC[C@@]2(C1=O)[C@@H](c1ccccc1C)CN(C)[C@@]21C(=O)c2cccc3cccc1c23` showed an MIC of 12.5 µg/mL (≈ 24.4 µM).
With `CN1C[C@H](c2ccc(Cl)cc2)[C@]2(CCC/C(=C\c3ccc(Cl)cc3)C2=O)[C@]12C(=O)c1cccc3cccc2c13` the figure was 12.5 µg/mL (≈ 22.6 µM); with `O=C1c2cccc3cccc(c23)[C@]12N1CSC[C@H]1[C@H](c1ccc(F)cc1)[C@]21CCC/C(=C\c2ccc(F)cc2)C1=O`, 1.76 µg/mL (≈ 3.12 µM); with `O=C1c2cccc3cccc(c23)[C@]12N[C@@H](c1ccccc1)[C@H](c1ccc(Cl)cc1Cl)[C@]21CCC/C(=C\c2ccc(Cl)cc2Cl)C1=O`, 0.4 µg/mL (≈ 0.585 µM).
With `O=C1c2cccc3cccc(c23)[C@]12N1CCC[C@H]1[C@H](c1ccc(F)cc1)[C@]21CCC/C(=C\c2ccc(F)cc2)C1=O` the figure was 1.78 µg/mL (≈ 3.26 µM).
Compound `Cc1ccc(/C=C2\CCC[C@@]3(C2=O)[C@@H](c2ccc(C)cc2)[C@@H]2CCCN2[C@@]32C(=O)c3cccc4cccc2c34)cc1` gave an MIC of 6.25 µg/mL (≈ 11.6 µM).
The compound `CN1C[C@H](c2cccc(F)c2)[C@]2(CCC/C(=C\c3cccc(F)c3)C2=O)[C@]12C(=O)c1cccc3cccc2c13` displayed an MIC of 12.5 µg/mL (≈ 24.1 µM).
Turning to `O=C1c2cccc3cccc(c23)[C@]12N1CCC[C@H]1[C@H](c1ccc(Cl)cc1)[C@]21CCC/C(=C\c2ccc(Cl)cc2)C1=O`, 1.78 µg/mL (≈ 3.08 µM) was the least that counted as inhibitory (MIC).
For `O=C1c2cccc3cccc(c23)[C@]12N1CSC[C@H]1[C@H](c1ccc(Cl)cc1)[C@]21CCC/C(=C\c2ccc(Cl)cc2)C1=O` the value was 6.25 µg/mL (≈ 10.5 µM); for `O=C1c2cccc3cccc(c23)[C@]12N[C@@H](c1ccccc1)[C@H](c1ccc(Cl)cc1)[C@]21CCC/C(=C\c2ccc(Cl)cc2)C1=O`, 6.25 µg/mL (≈ 10.2 µM); for `CN1C[C@H](c2ccc(Cl)cc2Cl)[C@]2(CCC/C(=C\c3ccc(Cl)cc3Cl)C2=O)[C@]12C(=O)c1cccc3cccc2c13`, 3.13 µg/mL (≈ 5.04 µM).
As to `O=C1c2cccc3cccc(c23)[C@]12N[C@@H](c1ccccc1)[C@H](c1ccccc1Cl)[C@]21CCC/C(=C\c2ccccc2Cl)C1=O`, the minimum inhibitory concentration (MIC) was 0.78 µg/mL (≈ 1.27 µM).
In turn, `Cc1ccc(/C=C2\CCC[C@@]3(C2=O)[C@@H](c2ccc(C)cc2)[C@@H]2CSCN2[C@@]32C(=O)c3cccc4cccc2c34)cc1` had an MIC of 6.25 µg/mL (≈ 11.2 µM).
With `CN1C[C@H](c2ccccc2)[C@]2(CCC/C(=C\c3ccccc3)C2=O)[C@]12C(=O)c1cccc3cccc2c13`, inhibition of growth (MIC) required 12.5 µg/mL (≈ 25.8 µM).
With `O=C1c2cccc3cccc(c23)[C@]12N1CSC[C@H]1[C@H](c1ccccc1)[C@]21CCC/C(=C\c2ccccc2)C1=O` the figure was 6.25 µg/mL (≈ 11.8 µM); with `O=C1c2cccc3cccc(c23)[C@]12N1CCC[C@H]1[C@H](c1ccccc1)[C@]21CCC/C(=C\c2ccccc2)C1=O`, 12.5 µg/mL (≈ 24.5 µM); with `CN1C[C@H](c2cccc3ccccc23)[C@]2(CCC/C(=C\c3cccc4ccccc34)C2=O)[C@]12C(=O)c1cccc3cccc2c13`, 6.25 µg/mL (≈ 10.7 µM).
`Cc1ccc(/C=C2\CCC[C@@]3(C2=O)[C@@H](c2ccc(C)cc2)[C@H](c2ccccc2)N[C@@]32C(=O)c3cccc4cccc2c34)cc1` came in with a minimal inhibitory concentration (MIC) of 6.25 µg/mL (≈ 10.9 µM).
`CN1C[C@H](c2ccccc2Cl)[C@]2(CCC/C(=C\c3ccccc3Cl)C2=O)[C@]12C(=O)c1cccc3cccc2c13` returned an MIC of 6.25 µg/mL (≈ 11.3 µM).

Source of the values: ChEMBL document CHEMBL1136997, “An atom economic synthesis and antitubercular evaluation of novel spiro-cyclohexanones” (2009).
